Laboratory results: patent US20060211671A1, “Estrogen receptors” (priority 2001, published 2006)
Entries after “also recorded” stand apart in the source; their conditions may differ.

Experiments:
[1] = system: orx male rats; settings: cited from earlier work
[2] = system: ovariectomized (ovx) mice; experiment: Effects of estrogen exposure on gonadal fat in ovariectomized WT, ERKO, BERKO and DERKO mice; format: in vivo; settings: for gonadal fat mass, WT mice: ovx WT mice
Text: Male double heterozygous (ERα^+/−β^+/−) mice were mated with female double heterozygous (ERα^+/−β^+/−) mice, resulting in ERα^+/+β^+/+ wildtype (WT); ERα^−/−β^+/+=ERKO, ERα^+/+β^−/−=BERKO and ERα^−/−β^−/−=DERKO offsprings (Vidal O et al (2000) Proc Natl Sci USA, 97, 5474). The diet, housing and genetic background was as previously described in Vidal O et al (2000) supra. In the estrogen exposure experiments all mice were ovariectomized. Ovaries were removed after a flank incision and the incisions were closed with metallic clips. Mice were left to recover for four days after ovariectomy before start of experiments. After recovery mice were injected s.c with 2.3 μg/mouse/day of 17β-estradiol benzoate (Sigma, St Louis, Mo., USA) for 5 days/week during three weeks time. Control mice received injections of vehicle oil (olive oil, Apoteksbolaget, Göteborg, Sweden).
Ovariectomized (ovx) mice, lacking one or both of the two known ERs, were given estrogen and the effects on gonadal fat was studied. The effects of estrogen in mice with both ERα and ERβ inactivated (DERKO) were compared with the effects of estrogen in wild type (WT) mice.
In Table 2, the left part describes the effects of estrogen on fat in ovx wild type (WT) and DERKO mice. Three months old ovx mice were treated for three weeks with 2.3 μg/mouse/day of 17β-estradiol 5 days/week or olive oil as control (=vehicle). n=7 for WT vehicle, n=7 for WT estrogen, n=7 for DERKO vehicle, n=8 for DERKO estrogen. Values are given as means±SEM and expressed as % increase over vehicle treated animal. **=p<0.01 compared with vehicle treated mice. ++=p<0.01 effect of estrogen in DERKO compared with the effect of estrogen in WT, Student t-test. The right part of Table 2 describes the calculation of estrogen receptor α/β dependent and independent effects of estrogen. The effects of estrogen in WT and DERKO mice, as described in the left part of the table, were used for the calculation of the proportion of ERα/β dependent and independent effects of estrogen. The values are given as % of the total effect seen in WT mice.

[3] = calculated from effects in WT and DERKO mice, % of the total effect seen in WT mice

Compound | body weight [1] | food intake [1] | total serum cholesterol [1] | ERα/β Dependent effect of estrogen on Fat Weight [2, 3] | ERα/β Independent effect of estrogen on Fat Weight [2, 3] | gonadal fat mass, BERKO mice ([2]; ovx BERKO mice, estrogen treatment, result in words (FIG. 6)) | gonadal fat mass, DERKO mice ([2]; ovx DERKO mice, estrogen treatment, result in words (FIG. 6)) | Effect of Estrogen (%) on Fat Weight, DERKO ([2]; ovx DERKO mice, three months old, 2.3 μg/mouse/day s.c. 5 days/week for three weeks, mean±SEM, % increase over vehicle treated animal) | gonadal fat mass, WT mice ([2]; estrogen treatment, result in words (FIG. 6)) | gonadal fat mass, WT mice ([2]; estrogen treatment, result in words (FIG. 6), listed as estrogen)
Oc1ccc2c(c1)CC[C@H](c1ccccc1)[C@@H]2c1ccc(OCCN2CCCC2)cc1 [lasofoxifene] | decreased | decreased | decreased | – | – | – | – | – | – | –
17β-estradiol benzoate [Estrogen] | – | – | – | 93% | 7% | reduced; also recorded: hyperresponsiveness | not | −2.0 ± 5.2++ % | reduction of gonadal fat mass | reduced
